Source: US7420068B2, “Crystalline composition containing escitalopram” (H. Lundbeck A/S, priority 2004, dated 2008)
Where a name gives a salt, the structure may show the parent alone.

Assays:
Format in all cases: physicochemical
[1] = Particle size of prior-art crystalline products (background statement); settings: product of the known preparation process
[2] = Flow properties of prior-art crystalline products (background statement); settings: product of the known preparation process
[3] = Particle size distribution by laser diffraction (Sympatec Helos, 1 bar dispersive pressure)
Text: As used herein, “particle size distribution” means the cumulative volume size distribution of equivalent spherical diameters as determined by laser diffraction at 1 bar dispersive pressure in a Sympatec Helos equipment. “Median particle size” “MPS” and X50 refer, correspondingly, each to the median or 50% quantile of said particle size distribution. “X10” and “X95” refer, correspondingly, to the 10% respectively the 95% quantile. “X10/X50” and “X50/X95” refer to the ratio between X10 and X50 respectively X50 and X95.

Row | particle size [1] | flow properties [2] | X50 (median particle size) ([3]; S-diol batches, production scale recrystallisation from ethanol) | X10/X50 ([3]; S-diol batches, ratio of 10% quantile to median) | X50/X95 ([3]; S-diol batches, ratio of median to 95% quantile) | Particle size at quantile 10% ([3]; Sympatec Helos, quantile 10%) | Particle size at quantile 50% ([3]; Sympatec Helos, quantile 50%) | Particle size at quantile 90% ([3]; Sympatec Helos, quantile 90%) | Compound
1 | 2-20 μm | similarly poor | – | – | – | – | – | – | CN(C)CCC[C@@]1(c2ccc(F)cc2)OCc2cc(C#N)ccc21.O=C(O)C(=O)O [escitalopram oxalate, (S)-1-[3-(dimethylamino)propyl]-1-(4-fluorophenyl)-1,3-dihydro-5-isobenzofurancarbonitrile oxalate]
2 | 2-20 μm | very poor | – | – | – | – | – | – | CN(C)CCCC1(c2ccc(F)cc2)OCc2cc(C#N)ccc21 (stereo not shown) [citalopram hydrobromide]
3 | – | – | 171 µm | 0.13 | 0.44 | 13 μm | 163 μm | 455 μm | CN(C)CCC[C@@]1(c2ccc(F)cc2)OCc2cc(C#N)ccc21 [Example 1, escitalopram oxalate]
